From patent US12466803B2 (priority 2021, dated 2025)

System: phospho (S293) BCKDHA in human skeletal myocytes
Assay: Phospho BCKDHA Alpha Surefire Cell Assay
Format: cell-based
Settings: 60 minutes with compound, geometric mean

Row | Structure (SMILES) | IC50 | IC50 (Homo sapiens, 1 h)
1 | COc1c(F)cc(Cl)c(-c2c(C(=O)O)sc3cc(F)ccc23)c1F (atropisomer, axis not shown) [Example 15, 3-(6-Chloro-2,4-difluoro-3-methoxyphenyl)-6-fluoro-1-benzothiophene-2-carboxylic acid, ATROP-1] | > 60 µM | 
2 | COc1c(F)cc(Cl)c(-c2c(C(=O)O)sc3cc(F)ccc23)c1F (atropisomer, axis not shown) [Example 16, 3-(6-Chloro-2,4-difluoro-3-methoxyphenyl)-6-fluoro-1-benzothiophene-2-carboxylic acid, ATROP-2] | 0.015 µM | 
3 | O=C(O)c1sc2cc(F)ccc2c1-c1c(F)cc2c(c1F)CCCO2 [Example 1, 3-(5,7-Difluoro-3,4-dihydro-2H-1-benzopyran-6-yl)-6-fluoro-1-benzothiophene-2-carboxylic acid] |  | 0.43 µM
4 | CC1CCc2c(cc(F)c(-c3c(C(=O)O)sc4cc(F)ccc34)c2F)O1 (stereo not drawn) [Example 3, 3-(5,7-Difluoro-2-methyl-3,4-dihydro-2H-1-benzopyran-6-yl)-6-fluoro-1-benzothiophene-2-carboxylic acid] |  | 1 µM
5 | O=C(O)c1sc2c(F)c(F)ccc2c1-c1ccccc1 [Example 4, 6,7-Difluoro-3-phenyl-1-benzothiophene-2-carboxylic acid] |  | > 60 µM
6 | O=C(O)c1sc2cc(F)cc(F)c2c1-c1ccccc1 [Example 5, Ammonium 4,6-difluoro-3-phenyl-1-benzothiophene-2-carboxylate] |  | > 60 µM
7 | O=C(O)c1sc2cc(F)ccc2c1-c1cc(Cl)c(Cl)cc1F [Example 7, 3-(4,5-Dichloro-2-fluorophenyl)-6-fluoro-1-benzothiophene-2-carboxylic acid] |  | 0.094 µM
8 | Cc1ncc(F)c(-c2c(C(=O)O)sc3cc(F)ccc23)c1F [Example 8, 3-(3,5-Difluoro-2-methylpyridin-4-yl)-6-fluoro-1-benzothiophene-2-carboxylic acid] |  | 0.72 µM
9 | Cc1c(F)c(F)cc(-c2c(C(=O)O)sc3cc(Cl)ccc23)c1F [Example 10, 6-Chloro-3-(2,4,5-trifluoro-3-methylphenyl)-1-benzothiophene-2-carboxylic acid] |  | 0.066 µM
10 | COc1c(F)c(F)cc(-c2c(C(=O)O)sc3cc(Cl)ccc23)c1F [Example 12, Ammonium 6-chloro-3-(2,4,5-trifluoro-3-methoxyphenyl)-1-benzothiophene-2-carboxylate] |  | 0.11 µM
11 | COc1c(F)cc(Cl)c(-c2c(C(=O)O)sc3cc(F)ccc23)c1F [Example 14, 3-(6-Chloro-2,4-difluoro-3-methoxyphenyl)-6-fluoro-1-benzothiophene-2-carboxylic acid] |  | 0.023 µM

The remaining lines, values ahead:

Row | IC50 | IC50 (Homo sapiens, 1 h) | Structure (SMILES)
12 |  | > 40 µM | C[C@@H]1CCc2cc(-c3c(C(=O)O)sc4cc(Cl)ccc34)ccc2O1 (single isomer, unassigned) [Example 41, 6-chloro-3-(2-methyl-3,4-dihydro-2H-1-benzopyran-6-yl)-1-benzothiophene-2-carboxylic acid, ENANT-1]
13 | > 24 µM |  | C[C@@H]1CCc2cc(-c3c(C(=O)O)sc4cc(Cl)ccc34)ccc2O1 (single isomer, unassigned) [Example 42, 6-chloro-3-(2-methyl-3,4-dihydro-2H-1-benzopyran-6-yl)-1-benzothiophene-2-carboxylic acid, ENANT-2]
14 |  | > 60 µM | C[C@@H]1CCc2cc(-c3c(C(=O)O)sc4cc(F)ccc34)ccc2O1 (single isomer, unassigned) [Example 43, 6-fluoro-3-(2-methyl-3,4-dihydro-2H-1-benzopyran-6-yl)-1-benzothiophene-2-carboxylic acid, ENANT-1]
15 | > 56 µM |  | C[C@@H]1CCc2cc(-c3c(C(=O)O)sc4cc(F)ccc34)ccc2O1 (single isomer, unassigned) [Example 44, 6-fluoro-3-(2-methyl-3,4-dihydro-2H-1-benzopyran-6-yl)-1-benzothiophene-2-carboxylic acid, ENANT-2]
16 | > 60 µM |  | C[C@@H]1CCc2cc(-c3c(C(=O)O)sc4ccccc34)ccc2O1 (single isomer, unassigned) [Example 45, 3-(2-methyl-3,4-dihydro-2H-1-benzopyran-6-yl)-1-benzothiophene-2-carboxylic acid, ENANT-1]
17 | > 29 µM |  | C[C@@H]1CCc2cc(-c3c(C(=O)O)sc4ccccc34)ccc2O1 (single isomer, unassigned) [Example 46, 3-(2-methyl-3,4-dihydro-2H-1-benzopyran-6-yl)-1-benzothiophene-2-carboxylic acid, ENANT-2]
18 |  | > 60 µM | C[C@H]1CCc2ccc(-c3c(C(=O)O)sc4cc(F)ccc34)cc2O1 (single isomer, unassigned) [Example 57, 6-fluoro-3-(2-methyl-3,4-dihydro-2H-1-benzopyran-7-yl)-1-benzothiophene-2-carboxylic acid, ENANT-1]
19 |  | 6 µM | C[C@@H]1CCc2cc(-c3c(C(=O)O)sc4cc(F)ccc34)c(F)cc2O1 (single isomer, unassigned) [Example 68, 6-fluoro-3-(7-fluoro-2-methyl-3,4-dihydro-2H-1-benzopyran-6-yl)-1-benzothiophene-2-carboxylic acid, ENANT-1]
20 | 3.6 µM |  | C[C@@H]1CCc2cc(-c3c(C(=O)O)sc4cc(F)ccc34)c(F)cc2O1 (single isomer, unassigned) [Example 69, 6-fluoro-3-(7-fluoro-2-methyl-3,4-dihydro-2H-1-benzopyran-6-yl)-1-benzothiophene-2-carboxylic acid, ENANT-2]
21 |  | 4.5 µM | C[C@@H]1CCc2cc(-c3c(C(=O)O)sc4cc(F)ccc34)cc(F)c2O1 (single isomer, unassigned) [Example 72, 6-fluoro-3-(8-fluoro-2-methyl-3,4-dihydro-2H-1-benzopyran-6-yl)-1-benzothiophene-2-carboxylic acid, ENANT-1]
22 | 8.6 µM |  | C[C@@H]1CCc2c(ccc(-c3c(C(=O)O)sc4cc(F)ccc34)c2F)O1 (single isomer, unassigned) [Example 77, 6-fluoro-3-(5-fluoro-2-methyl-3,4-dihydro-2H-1-benzopyran-6-yl)-1-benzothiophene-2-carboxylic acid, ENANT-1]
23 | 3.9 µM |  | C[C@@H]1CCc2c(ccc(-c3c(C(=O)O)sc4cc(F)ccc34)c2F)O1 (single isomer, unassigned) [Example 78, 6-fluoro-3-(5-fluoro-2-methyl-3,4-dihydro-2H-1-benzopyran-6-yl)-1-benzothiophene-2-carboxylic acid, ENANT-2]
24 |  | 0.048 µM | COc1c(F)ccc(-c2c(C(=O)O)sc3cc(Cl)ccc23)c1F [Example 13, 6-Chloro-3-(2,4-difluoro-3-methoxyphenyl)-1-benzothiophene-2-carboxylic acid]
25 |  | 0.88 µM | COc1c(F)c(F)cc(-c2c(C(=O)O)oc3cc(F)ccc23)c1F [Example 17, 6-Fluoro-3-(2,4,5-trifluoro-3-methoxyphenyl)-1-benzofuran-2-carboxylic acid]
26 |  | 0.57 µM | COc1c(F)c(F)cc(-c2c(C(=O)O)oc3cc(Cl)ccc23)c1F [Example 18, 6-Chloro-3-(2,4,5-trifluoro-3-methoxyphenyl)-1-benzofuran-2-carboxylic acid]
27 |  | 4.4 µM | O=C(O)c1sc2cc(F)ccc2c1-c1ccc(F)c(F)c1F [Example 19, 6-Fluoro-3-(2,3,4-trifluorophenyl)-1-benzothiophene-2-carboxylic acid]
